# Test results taken from patent publication US8148391B2 (Cephalon, Inc., priority 2006, dated 2012).
# pIC50: −log10 of the molar value.
# Target: T1, baculovirus-expressed ALK (Homo sapiens, UniProt Q9UM73)
# T1 construct: host or cells: baculovirus expression system
# Test: ALK Kinase Assay (ELISA-type, time-resolved fluorescence)
# Assay type: biochemical
# Conditions: 1 μM ATP (Km level), 30 ng/ml ALK, 37° C., 15 minutes; read-out: ALK Activity (ALK kinase inhibition, IC50 class)
# Experimental: Briefly, each 96-well plate was coated with 100 μL/well of 10 μg/mL substrate (phospholipase C-γ) in Tris-buffered saline (TBS). […] The reaction was initiated by adding enzyme (30 ng/ml ALK) and was allowed to proceed at 37° C. for 15 minutes. Detection of the phosphorylated product was performed by adding 100 μl/well of Eu-N1 labeled PT66 antibody (Perkin Elmer # AD0041).
# Data analysis was performed using ActivityBase (IDBS, Guilford, UK). IC50 values were calculated by plotting percent inhibition versus log10 of the concentration of compound and fitting to the nonlinear regression sigmoidal dose-response (variable slope) equation in XLFit (IDBS, Guilford, UK).
# T1 sequence (Q9UM73 19-1620): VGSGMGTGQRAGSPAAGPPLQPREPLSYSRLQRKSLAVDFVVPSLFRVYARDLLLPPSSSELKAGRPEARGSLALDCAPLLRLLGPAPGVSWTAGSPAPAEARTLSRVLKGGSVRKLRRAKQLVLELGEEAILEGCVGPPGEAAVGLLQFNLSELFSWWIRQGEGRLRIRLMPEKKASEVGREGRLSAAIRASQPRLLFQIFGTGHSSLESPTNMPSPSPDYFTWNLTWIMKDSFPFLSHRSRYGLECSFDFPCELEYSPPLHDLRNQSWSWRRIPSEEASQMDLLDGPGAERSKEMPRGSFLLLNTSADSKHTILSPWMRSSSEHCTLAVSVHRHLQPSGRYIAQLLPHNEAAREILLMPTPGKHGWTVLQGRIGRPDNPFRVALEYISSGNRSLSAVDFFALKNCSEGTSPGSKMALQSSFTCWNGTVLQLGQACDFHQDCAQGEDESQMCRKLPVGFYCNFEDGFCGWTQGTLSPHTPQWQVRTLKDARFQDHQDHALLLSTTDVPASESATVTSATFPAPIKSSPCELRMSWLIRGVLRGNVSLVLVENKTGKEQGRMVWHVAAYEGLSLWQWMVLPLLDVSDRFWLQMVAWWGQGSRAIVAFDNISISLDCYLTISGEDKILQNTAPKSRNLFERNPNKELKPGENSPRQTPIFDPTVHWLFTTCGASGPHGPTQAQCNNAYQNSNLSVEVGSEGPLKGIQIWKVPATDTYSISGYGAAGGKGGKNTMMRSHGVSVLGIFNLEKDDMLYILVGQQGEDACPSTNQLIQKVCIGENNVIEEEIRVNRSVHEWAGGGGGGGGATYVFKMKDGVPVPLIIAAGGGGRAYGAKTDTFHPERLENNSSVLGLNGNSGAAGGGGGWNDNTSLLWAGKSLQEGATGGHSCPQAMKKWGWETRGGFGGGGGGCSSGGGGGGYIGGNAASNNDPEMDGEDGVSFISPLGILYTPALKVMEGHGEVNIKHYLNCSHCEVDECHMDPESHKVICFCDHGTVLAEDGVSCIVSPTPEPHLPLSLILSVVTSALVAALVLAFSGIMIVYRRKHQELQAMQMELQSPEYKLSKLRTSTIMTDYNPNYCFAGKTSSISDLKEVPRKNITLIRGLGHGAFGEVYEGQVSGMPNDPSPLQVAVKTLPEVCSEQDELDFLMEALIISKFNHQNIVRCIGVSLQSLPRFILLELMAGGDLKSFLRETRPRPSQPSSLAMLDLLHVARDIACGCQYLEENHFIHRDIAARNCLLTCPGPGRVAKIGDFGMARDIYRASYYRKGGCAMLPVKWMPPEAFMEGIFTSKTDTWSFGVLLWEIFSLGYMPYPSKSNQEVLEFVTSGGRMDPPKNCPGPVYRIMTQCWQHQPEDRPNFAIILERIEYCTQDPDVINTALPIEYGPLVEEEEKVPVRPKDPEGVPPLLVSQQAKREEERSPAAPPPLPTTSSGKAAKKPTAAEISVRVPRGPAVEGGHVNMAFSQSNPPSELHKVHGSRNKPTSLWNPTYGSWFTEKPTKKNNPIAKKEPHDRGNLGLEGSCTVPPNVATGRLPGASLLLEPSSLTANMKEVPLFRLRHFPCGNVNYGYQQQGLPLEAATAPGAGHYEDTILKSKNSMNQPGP
row,pIC50,Compound
1,6.00 to 7.00,"CNC(=O)c1cccc(F)c1Nc1nc(Nc2ccc3c(c2)NC(=O)C(NC(=O)CN(C)C)CC3(C)C)ncc1Cl (stereo not drawn) [Example 1285, 2-{5-Chloro-2-[3-(2-dimethylamino-acetylamino)-5,5-dimethyl-2-oxo-2,3,4,5-tetrahydro-1H-1-benzazepin-8-ylamino]-pyrimidin-4-ylamino}-3-fluoro-N-methyl-benzamide]"
2,6.00 to 7.00,"CNC(=O)c1cccc(F)c1Nc1nc(Nc2ccc3c(c2)NC(=O)C(NC(C)=O)CC3(C)C)ncc1Cl (stereo not drawn) [Example 1289, 2-[2-(3-Acetylamino-5,5-dimethyl-2-oxo-2,3,4,5-tetrahydro-1H-1-benzazepin-8-ylamino)-5-chloro-pyrimidin-4-ylamino]-3-fluoro-N-methyl-benzamide]"
3,6.00 to 7.00,"CNC(=O)c1cccc(F)c1Nc1nc(Nc2ccc3c(c2)NC(=O)C(NC(=O)N2CCCC2)CC3(C)C)ncc1Cl (stereo not drawn) [Example 1295, Pyrrolidine-1-carboxylic acid {8-[5-chloro-4-(2-fluoro-6-methylcarbamoyl-phenylamino)-pyrimidin-2-ylamino]-5,5-dimethyl-2-oxo-2,3,4,5-tetrahydro-1H-1-benzazepin-3-yl}-amide]"
4,6.00 to 7.00,"CNC(=O)c1cccc(F)c1Nc1nc(Nc2ccc3c(c2)NC(=O)C(NC(=O)OC)CC3(C)C)ncc1Cl (stereo not drawn) [Example 1299, {8-[5-Chloro-4-(2-fluoro-6-methylcarbamoyl-phenylamino)-pyrimidin-2-ylamino]-5,5-dimethyl-2-oxo-2,3,4,5-tetrahydro-1H-1-benzazepin-3-yl}-carbamic acid methyl ester]"
5,6.00 to 7.00,"CCOC(=O)N1CCCOc2ccc(Nc3ncc(Cl)c(Nc4c(F)cccc4C(=O)NC)n3)cc21 [Example 1410, 2-[5-Chloro-4-(2-fluoro-6-methylcarbamoyl-phenylamino)-pyrimidin-2-ylamino]-7,8-dihydro-6H-5-oxa-9-aza-benzocycloheptene-9-carboxylic acid ethyl ester]"
6,> 7.00,"CNC(=O)c1cccc(F)c1Nc1nc(Nc2ccc3c(c2)NC(=O)C(N)CC3(C)C)ncc1Cl (stereo not drawn) [Example 1272, 2-[2-(3-Amino-5,5-dimethyl-2-oxo-2,3,4,5-tetrahydro-1H-1-benzazepin-8-ylamino)-5-chloro-pyrimidin-4-ylamino]-3-fluoro-N-methyl-benzamide]"
7,> 7.00,"CCCNC(=O)c1ccccc1Nc1nc(Nc2ccc3c(c2)CCCC(=O)N3C)ncc1Cl [Example 1025, 2-[5-Chloro-2-(1-methyl-2-oxo-2,3,4,5-tetrahydro-1H-benzo[b]azepin-7-ylamino)-pyrimidin-4-ylamino]-N-propyl-benzamide]"
8,> 7.00,"CCCCNC(=O)c1ccccc1Nc1nc(Nc2ccc3c(c2)CCCC(=O)N3C)ncc1Cl [Example 1030, N-Butyl-2-[5-chloro-2-(1-methyl-2-oxo-2,3,4,5-tetrahydro-1H-benzo[b]azepin-7-ylamino)-pyrimidin-4-ylamino]-benzamide]"

# Same assay, conditions: ALK kinase inhibition, 1 μM ATP (Km level); read-out: ALK Activity
row,pIC50,Compound
1,> 7.00,"CNC(=O)c1cccc(F)c1Nc1nc(Nc2ccc3c(c2)C(C)(C)CCC(=O)N3)ncc1Cl [Example 396, 2-[5-Chloro-2-(5,5-dimethyl-2-oxo-2,3,4,5-tetrahydro-1H-benzo[b]azepin-7-ylamino)-pyrimidin-4-ylamino]-3-fluoro-N-methyl-benzamide]"
2,6.00 to 7.00,"CNC(=O)c1cccc(C)c1Nc1nc(Nc2ccc3c(c2)CCN(CCOC)CC3)ncc1Cl [Example 313, 2-{5-Chloro-2-[3-(2-methoxy-ethyl)-2,3,4,5-tetrahydro-1H-benzo[d]azepin-7-ylamino]-pyrimidin-4-ylamino}-3,N-dimethyl-benzamide]"
3,6.00 to 7.00,"CNC(=O)c1cccc(C)c1Nc1nc(Nc2ccc3c(c2)C(C)(C)CCC(=O)N3)ncc1Cl [Example 399, 2-[5-Chloro-2-(5,5-dimethyl-2-oxo-2,3,4,5-tetrahydro-1H-benzo[b]azepin-7-ylamino)-pyrimidin-4-ylamino]-3,N-dimethyl-benzamide]"
4,> 7.00,"CNC(=O)c1cccc(F)c1Nc1nc(Nc2ccc3c(c2)N(CCOC)C(=O)CCC3)ncc1Cl [Example 362, 2-{5-Chloro-2-[1-(2-methoxy-ethyl)-2-oxo-2,3,4,5-tetrahydro-1H-benzo[b]azepin-8-ylamino]-pyrimidin-4-ylamino}-3-fluoro-N-methyl-benzamide]"
5,> 7.00,"CNC(=O)c1ccccc1Nc1nc(Nc2ccc3c(c2)CCN(CCOC)CC3)ncc1Cl [Example 34, 2-{5-Chloro-2-[3-(2-methoxy-ethyl)-2,3,4,5-tetrahydro-1H-benzo[d]azepin-7-ylamino]-pyrimidin-4-ylamino}-N-methyl-benzamide]"

# Same assay, conditions: ALK kinase inhibition, 1 μM ATP; read-out: ALK Activity
row,Compound,pIC50
1,"CNC(=O)c1cccc(F)c1Nc1nc(Nc2ccc3c(c2)N(C(C)C)C(=O)CCC3(C)C)ncc1Cl [Example 1588, 2-[5-Chloro-2-(1-isopropyl-5,5-dimethyl-2-oxo-2,3,4,5-tetrahydro-1H-benzo[b]azepin-8-ylamino)-pyrimidin-4-ylamino]-3-fluoro-N-methyl-benzamide]",> 7.00
2,"CNC(=O)c1cccc(F)c1Nc1nc(Nc2ccc3c(c2)N(CCOC)C(=O)CCC3(C)C)ncc1Cl [Example 1581, 2-{5-Chloro-2-[1-(2-methoxy-ethyl)-5,5-dimethyl-2-oxo-2,3,4,5-tetrahydro-1H-benzo[b]azepin-8-ylamino]-pyrimidin-4-ylamino}-3-fluoro-N-methyl-benzamide]",> 7.00

# The next lines start with the values.
row,pIC50,Compound
1,6.00 to 7.00,"CNC(=O)c1cccc(F)c1Nc1nc(Nc2ccc3c(c2)OCCCN3)ncc1Cl [Example 1723, 2-[5-Chloro-2-(6,7,8,9-tetrahydro-5-oxa-9-aza-benzocyclohepten-3-ylamino)-pyrimidin-4-ylamino]-3-fluoro-N-methyl-benzamide]"
2,6.00 to 7.00,"CCN1CCCOc2ccc(Nc3ncc(Cl)c(Nc4c(F)cccc4C(=O)NC)n3)cc21 [Example 1697, 2-[5-Chloro-2-(9-ethyl-6,7,8,9-tetrahydro-5-oxa-9-aza-benzocyclohepten-2-ylamino)-pyrimidin-4-ylamino]-3-fluoro-N-methyl-benzamide]"
3,6.00 to 7.00,"CNC(=O)c1cccc(F)c1Nc1nc(Nc2ccc3c(c2)OCCCN3C(=O)CN2CCCC2)ncc1Cl [Example 1714, 2-{5-Chloro-2-[9-(2-pyrrolidin-1-yl-acetyl)-6,7,8,9-tetrahydro-5-oxa-9-aza-benzocyclohepten-3-ylamino]-pyrimidin-4-ylamino}-3-fluoro-N-methyl-benzamide]"
4,> 7.00,"CNC(=O)c1cccc(F)c1Nc1nc(Nc2ccc3c(c2)OCCCN3CCN2CCCC2)ncc1Cl [Example 1718, 2-{5-Chloro-2-[9-(2-pyrrolidin-1-yl-ethyl)-6,7,8,9-tetrahydro-5-oxa-9-aza-benzocyclohepten-3-ylamino]-pyrimidin-4-ylamino}-3-fluoro-N-methyl-benzamide]"
5,> 7.00,"CCN1CCCOc2cc(Nc3ncc(Cl)c(Nc4c(F)cccc4C(=O)NC)n3)ccc21 [Example 1692, 2-[5-Chloro-2-(9-ethyl-6,7,8,9-tetrahydro-5-oxa-9-aza-benzocyclohepten-3-ylamino)-pyrimidin-4-ylamino]-3-fluoro-N-methyl-benzamide]"
6,6.00 to 7.00,"CNC(=O)c1cccc(F)c1Nc1nc(Nc2ccc3c(c2)N(C(C)=O)CCCO3)ncc1Cl [Example 1701, 2-[2-(9-Acetyl-6,7,8,9-tetrahydro-5-oxa-9-aza-benzocyclohepten-2-ylamino)-5-chloro-pyrimidin-4-ylamino]-3-fluoro-N-methyl-benzamide]"
